Assay results as given in patent US8129380B2, “Phthalazinone derivatives” (AstraZeneca AB, priority 2008, dated 2012).

Each molecule was assayed on HeLa cells (assay: Potentiation Factor (PF50): MMS growth inhibition, SRB assay). Conditions: MMS 0-10 μg/ml, PARP inhibitor at 30 nM, ratio IC50 control / IC50 + inhibitor.
Type: cell-based
Protocol: The Potentiation Factor (PF50) for compounds is calculated as a ratio of the IC50 of control cell growth divided by the IC50 of cell growth+PARP inhibitor. Growth inhibition curves for both control and compound treated cells are in the presence of the alkylating agent methyl methanesulfonate (MMS). The test compounds were used at a fixed concentration of 0.2 micromolar. The concentrations of MMS were over a range from 0 to 10 μg/ml.
2,000 HeLa cells were seeded into each well of a flat-bottomed 96-well microtiter plate in a volume of 100 μl and incubated for 6 hours at 37° C. Cells were either replaced with media alone or with media containing PARP inhibitor at a final concentration of 30 nM or 200 nM. […] Cells treated with PARP inhibitor alone were used to assess the growth inhibition by the PARP inhibitor.
Cells were left for a further 16 hours before replacing the media and allowing the cells to grow for a further 72 hours at 37° C. The media was then removed and the cells fixed with 100 μl of ice cold 10% (w/v) trichloroacetic acid. The plates were incubated at 4° C. for 20 minutes and then washed four times with water. Each well of cells was then stained with 100 μl of 0.4% (w/v) SRB in 1% acetic acid for 20 minutes before washing four times with 1% acetic acid. Plates were then dried for 2 hours at room temperature. The dye from the stained cells was solubilized by the addition of 100 μl of 10 mM Tris Base into each well.

Going from `O=C(c1cc(Cc2n[nH]c(=O)c3ccccc23)ccc1F)N1CCC(Oc2ccc(F)cc2)CC1` [Compound 2c] to `COc1ccc(OC2CCN(C(=O)c3cc(Cc4n[nH]c(=O)c5ccccc45)ccc3F)CC2)cc1` [Compound 8b, 4-[[4-fluoro-3-[4-(4-methoxyphenoxy)piperidine-1-carbonyl]phenyl]methyl]-2H-phthalazin-1-one], the “PF50 (30 nM)” value rises from 1.9 to 23.6.

Compared with `O=C(c1cc(Cc2n[nH]c(=O)c3ccccc23)ccc1F)N1CCC(OCC2CC2)CC1` [Compound 2g], `O=C(c1cc(Cc2n[nH]c(=O)c3ccccc23)ccc1F)N1CCC(OCC2CCCO2)CC1` (stereo not drawn) [Compound 20, 4-[[4-fluoro-3-[4-(oxolan-2-ylmethoxy)piperidine-1-carbonyl]phenyl]methyl]-2H-phthalazin-1-one] is lower in “PF50 (30 nM)” value: 4.3 for the first, 2.0 for the second.

Going from `CC(C)COC1CCN(C(=O)c2cc(Cc3n[nH]c(=O)c4ccccc34)ccc2F)CC1` [Compound 2h] to `CC(C)OC1CCN(C(=O)c2cc(Cc3n[nH]c(=O)c4ccccc34)ccc2F)CC1` [Compound 11, 4-(4-fluoro-3-(4-isopropoxypiperidine-1-carbonyl)benzyl)phthalazin-1(2H)-one], the “PF50 (30 nM)” value rises from 2.9 to 33.6.

Going from `O=C(c1cc(Cc2n[nH]c(=O)c3ccccc23)ccc1F)N1CCC(Oc2ccccn2)CC1` [Compound 2i] to `O=C(c1cc(Cc2n[nH]c(=O)c3ccccc23)ccc1F)N1CCC(Oc2ccncn2)CC1` [Compound 26a, 4-(4-fluoro-3-(4-(pyrimidin-4-yloxy)piperidine-1-carbonyl)benzyl)phthalazin-1(2H)-one], the “PF50 (30 nM)” value falls from 16.7 to 3.7.

Going from `O=C(c1cc(Cc2n[nH]c(=O)c3ccccc23)ccc1F)N1CCC(Oc2ccncc2)CC1` [Compound 2j] to `O=C(c1cc(Cc2n[nH]c(=O)c3ccccc23)ccc1F)N1CCC(Oc2ccc(Cl)nc2)CC1` [Compound 26m], the “PF50 (30 nM)” value falls from 3.0 to 2.4.

`O=C(c1cccc(Cc2n[nH]c(=O)c3c(F)ccc(F)c23)c1)N1CCC(OCC2CC2)CC1` [Compound 4a] and `CC(C)COC1CCN(C(=O)c2cccc(Cc3n[nH]c(=O)c4c(F)ccc(F)c34)c2)CC1` [Compound 4c] are the same in “PF50 (30 nM)” value: 1.2 for the first, 1.2 for the second.

Going from `O=C(c1cccc(Cc2n[nH]c(=O)c3c(F)ccc(F)c23)c1)N1CCC(Oc2ccccn2)CC1` [Compound 4b] to `NC(=O)c1ccnc(OC2CCN(C(=O)c3cc(Cc4n[nH]c(=O)c5ccccc45)ccc3F)CC2)c1` [Compound 26g], the “PF50 (30 nM)” value falls from 2.2 to 1.6.

First: O=C(c1cc(Cc2n[nH]c(=O)c3ccccc23)ccn1)N1CCC(Oc2ccc(Cl)cc2)CC1 [Compound 6a]
Second: O=C(c1cc(Cc2n[nH]c(=O)c3ccccc23)ccn1)N1CCC(Oc2ccc(F)cc2)CC1 [Compound 6b]
The “PF50 (30 nM)” value of the first is higher: 1.7 for the first, 1.5 for the second.

Going from `COC1CCN(C(=O)c2cc(Cc3n[nH]c(=O)c4ccccc34)ccn2)CC1` [Compound 6c] to `CC(C)OC1CCN(C(=O)c2cc(Cc3n[nH]c(=O)c4ccccc34)ccn2)CC1` [Compound 25, 4-[[2-(4-propan-2-yloxypiperidine-1-carbonyl)pyridin-4-yl]methyl]-2H-phthalazin-1-one], the “PF50 (30 nM)” value rises from 1.2 to 2.1.

Compared with `O=C(c1cc(Cc2n[nH]c(=O)c3ccccc23)ccn1)N1CCC(Oc2ccccc2)CC1` [Compound 6d], `O=C(c1cc(Cc2n[nH]c(=O)c3ccccc23)ccn1)N1CCC(Oc2ccncc2)CC1` [Compound 6e] is higher in “PF50 (30 nM)” value: 1.4 for the first, 1.5 for the second.

Compared with `O=C(c1cc(Cc2n[nH]c(=O)c3ccccc23)ccn1)N1CCC(Oc2ccccn2)CC1` [Compound 6f], `O=C(c1cc(Cc2n[nH]c(=O)c3ccccc23)ccc1F)N1CCC(Oc2cnccn2)CC1` [Compound 26d] is higher in “PF50 (30 nM)” value: 1.8 for the first, 4.0 for the second.

Compared with `COCCOC1CCN(C(=O)c2cc(Cc3n[nH]c(=O)c4ccccc34)ccc2F)CC1` [Compound 7, 4-(4-fluoro-3-(4-(2-methoxyethoxy)piperidine-1-carbonyl)benzyl)phthalazin-1(2H)-one], `CCCOC1CCN(C(=O)c2cc(Cc3n[nH]c(=O)c4ccccc34)ccc2F)CC1` [Compound 8c, 4-[[4-fluoro-3-(4-propoxypiperidine-1-carbonyl)phenyl]methyl]-2H-phthalazin-1-one] is higher in “PF50 (30 nM)” value: 4.0 for the first, 12.2 for the second.

Compared with `COc1cccc(OC2CCN(C(=O)c3cc(Cc4n[nH]c(=O)c5ccccc45)ccc3F)CC2)c1` [Compound 8a, 4-[[4-fluoro-3-[4-(3-methoxyphenoxy)piperidine-1-carbonyl]phenyl]methyl]-2H-phthalazin-1-one], `COc1ccnc(OC2CCN(C(=O)c3cc(Cc4n[nH]c(=O)c5ccccc45)ccc3F)CC2)c1` [Compound 26k] is higher in “PF50 (30 nM)” value: 1.6 for the first, 26.8 for the second.

Going from `COc1ccccc1OC1CCN(C(=O)c2cc(Cc3n[nH]c(=O)c4ccccc34)ccc2F)CC1` [Compound 8d, 4-[[4-fluoro-3-[4-(2-methoxyphenoxy)piperidine-1-carbonyl]phenyl]methyl]-2H-phthalazin-1-one] to `O=C(c1cc(Cc2n[nH]c(=O)c3ccccc23)ccc1F)N1CCC(OCc2ccccc2)CC1` [Compound 8e, 4-[[4-fluoro-3-(4-phenylmethoxypiperidine-1-carbonyl)phenyl]methyl]-2H-phthalazin-1-one], the “PF50 (30 nM)” value rises from 1.2 to 1.4.

Compared with `N#CCc1ccc(OC2CCN(C(=O)c3cc(Cc4n[nH]c(=O)c5ccccc45)ccc3F)CC2)cc1` [Compound 8f, 2-[4-[1-[2-fluoro-5-[(4-oxo-3H-phthalazin-1-yl)methyl]benzoyl]piperidin-4-yl]oxyphenyl]acetonitrile], `N#Cc1ccc(OC2CCN(C(=O)c3cc(Cc4n[nH]c(=O)c5ccccc45)ccc3F)CC2)nc1` [Compound 26c] is higher in “PF50 (30 nM)” value: 4.1 for the first, 32.4 for the second.

First: O=C(c1cc(Cc2n[nH]c(=O)c3ccccc23)ccc1F)N1CCC2(CC1)OCc1ccccc12 [Compound 9, 4-(4-fluoro-3-(3H-spiro[isobenzofuran-1,4′-piperidine]-1′-ylcarbonyl)benzyl)phthalazin-1(2H)-one]
Second: COC1(C)CCN(C(=O)c2cc(Cc3n[nH]c(=O)c4ccccc34)ccc2F)CC1 [Compound 24, 4-[[4-fluoro-3-(4-methoxy-4-methylpiperidine-1-carbonyl)phenyl]methyl]-2H-phthalazin-1-one]
The “PF50 (30 nM)” value of the first is lower: 1.3 for the first, 1.5 for the second.

Compared with `CC(C)OC1CCN(C(=O)c2cccc(Cc3n[nH]c(=O)c4ccccc34)c2)CC1` [Compound 12], `O=C(c1cc(Cc2n[nH]c(=O)c3ccccc23)ccc1F)N1CCC(OC(F)F)CC1` [Compound 19, 4-(3-(4-(difluoromethoxy)piperidine-1-carbonyl)-4-fluorobenzyl)phthalazin-1(2H)-one] is higher in “PF50 (30 nM)” value: 2.1 for the first, 2.5 for the second.

Going from `O=C(c1cc(Cc2n[nH]c(=O)c3ccccc23)ccc1F)N1CCC(OC2CCC2)CC1` [Compound 15, 4-(3-(4-cyclobutoxypiperidine-1-carbonyl)-4-fluorobenzyl)phthalazin-1(2H)-one] to `C=CCOC1CCN(C(=O)c2cc(Cc3n[nH]c(=O)c4ccccc34)ccc2F)CC1` [Compound 16], the “PF50 (30 nM)” value falls from 4.4 to 3.4.

Compared with `Cc1ccc(OC2CCN(C(=O)c3cc(Cc4n[nH]c(=O)c5ccccc45)ccc3F)CC2)nn1` [Compound 26b], `Cc1nccnc1OC1CCN(C(=O)c2cc(Cc3n[nH]c(=O)c4ccccc34)ccc2F)CC1` [Compound 26h] is higher in “PF50 (30 nM)” value: 1.5 for the first, 12.7 for the second.

Going from `O=C(c1cc(Cc2n[nH]c(=O)c3ccccc23)ccc1F)N1CCC(Oc2ncccn2)CC1` [Compound 26e] to `N#Cc1nccnc1OC1CCN(C(=O)c2cc(Cc3n[nH]c(=O)c4ccccc34)ccc2F)CC1` [Compound 26l], the “PF50 (30 nM)” value falls from 2.7 to 1.2.

Going from `N#Cc1ccnc(OC2CCN(C(=O)c3cc(Cc4n[nH]c(=O)c5ccccc45)ccc3F)CC2)c1` [Compound 26f] to `Cc1cnc(OC2CCN(C(=O)c3cc(Cc4n[nH]c(=O)c5ccccc45)ccc3F)CC2)c(C)n1` [Compound 26i], the “PF50 (30 nM)” value rises from 4.4 to 8.0.

`Cc1cnc(C)c(OC2CCN(C(=O)c3cc(Cc4n[nH]c(=O)c5ccccc45)ccc3F)CC2)n1` [Compound 26j] was tested, and the “PF50 (30 nM)” value was 1.2.

Same assay, conditions: MMS 0-10 μg/ml, PARP inhibitor at 200 nM, ratio IC50 control / IC50 + inhibitor

Compared with `O=C(c1cc(Cc2n[nH]c(=O)c3ccccc23)ccc1F)N1CCC(O)CC1` [Compound 2a, 4-(4-fluoro-3-(4-hydroxypiperidine-1-carbonyl)benzyl)phthalazin-1(2H)-one], `O=C(c1cc(Cc2n[nH]c(=O)c3ccccc23)ccc1F)N1CCC(Oc2ccc(F)cc2)CC1` [Compound 2c] is higher in “PF50 (200 nM)” value: 3 for the first, 7 for the second.

First: O=C(c1cc(Cc2n[nH]c(=O)c3ccccc23)ccn1)N1CCC(Oc2ccc(Cl)cc2)CC1 [Compound 6a]
Second: O=C(c1cc(Cc2n[nH]c(=O)c3ccccc23)ccn1)N1CCC(Oc2ccc(F)cc2)CC1 [Compound 6b]
The “PF50 (200 nM)” value of the first is higher: 4.2 for the first, 3.5 for the second.

Going from `COC1CCN(C(=O)c2cc(Cc3n[nH]c(=O)c4ccccc34)ccn2)CC1` [Compound 6c] to `O=C(c1cc(Cc2n[nH]c(=O)c3ccccc23)ccn1)N1CCC(Oc2ccccc2)CC1` [Compound 6d], the “PF50 (200 nM)” value rises from 1.5 to 3.5.

First: O=C(c1cc(Cc2n[nH]c(=O)c3ccccc23)ccn1)N1CCC(Oc2ccncc2)CC1 [Compound 6e]
Second: O=C(c1cc(Cc2n[nH]c(=O)c3ccccc23)ccn1)N1CCC(Oc2ccccn2)CC1 [Compound 6f]
The “PF50 (200 nM)” value of the first is lower: 1.9 for the first, 5.0 for the second.
